Data as given in ChEMBL document CHEMBL3991601, “The target landscape of clinical kinase drugs” (Science, 2017).
Active and inactive are the calls of the source. On the calls: in the data inactive means no Kd found up to 30 µM.

What was measured:
[1] = target: T1, Mitogen-activated protein kinase kinase kinase 6 (Homo sapiens, UniProt O95382)
T1 sequence (O95382 whole entry): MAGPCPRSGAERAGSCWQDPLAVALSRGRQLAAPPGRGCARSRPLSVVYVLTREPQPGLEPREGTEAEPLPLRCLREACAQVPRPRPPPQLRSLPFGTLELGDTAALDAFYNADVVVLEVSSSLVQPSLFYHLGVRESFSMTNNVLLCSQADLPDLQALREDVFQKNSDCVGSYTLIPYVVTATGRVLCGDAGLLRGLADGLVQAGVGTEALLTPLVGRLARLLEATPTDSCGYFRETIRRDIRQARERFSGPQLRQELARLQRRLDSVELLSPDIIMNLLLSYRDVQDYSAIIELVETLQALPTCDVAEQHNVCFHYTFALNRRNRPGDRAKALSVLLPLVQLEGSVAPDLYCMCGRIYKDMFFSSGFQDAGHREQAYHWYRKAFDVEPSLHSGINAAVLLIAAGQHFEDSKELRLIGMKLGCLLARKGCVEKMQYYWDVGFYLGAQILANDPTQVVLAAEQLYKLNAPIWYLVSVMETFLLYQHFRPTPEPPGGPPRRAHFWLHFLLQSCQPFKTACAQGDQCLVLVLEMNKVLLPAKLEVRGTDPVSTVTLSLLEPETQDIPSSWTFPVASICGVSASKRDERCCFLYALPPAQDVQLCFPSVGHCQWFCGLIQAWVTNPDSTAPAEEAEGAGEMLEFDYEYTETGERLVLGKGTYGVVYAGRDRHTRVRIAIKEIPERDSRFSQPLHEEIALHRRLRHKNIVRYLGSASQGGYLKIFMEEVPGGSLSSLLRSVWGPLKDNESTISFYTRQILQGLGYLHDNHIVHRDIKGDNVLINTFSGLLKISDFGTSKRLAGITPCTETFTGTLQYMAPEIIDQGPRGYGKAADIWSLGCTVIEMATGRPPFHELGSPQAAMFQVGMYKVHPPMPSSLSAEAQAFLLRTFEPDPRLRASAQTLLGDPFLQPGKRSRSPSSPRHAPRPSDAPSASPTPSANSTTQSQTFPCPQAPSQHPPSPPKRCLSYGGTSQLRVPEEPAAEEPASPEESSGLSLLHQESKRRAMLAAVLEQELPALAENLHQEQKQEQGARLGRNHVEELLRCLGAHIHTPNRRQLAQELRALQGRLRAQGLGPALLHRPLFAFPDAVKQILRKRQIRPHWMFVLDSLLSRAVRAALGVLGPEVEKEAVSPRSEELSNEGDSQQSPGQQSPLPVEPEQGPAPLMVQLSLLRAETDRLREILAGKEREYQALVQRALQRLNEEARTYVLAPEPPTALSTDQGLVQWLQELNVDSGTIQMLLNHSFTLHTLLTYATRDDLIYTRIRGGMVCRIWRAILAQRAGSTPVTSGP

[2] = target: ATP-dependent RNA helicase DDX3X (Homo sapiens, UniProt O00571)
Sequence of ATP-dependent RNA helicase DDX3X (O00571 whole entry): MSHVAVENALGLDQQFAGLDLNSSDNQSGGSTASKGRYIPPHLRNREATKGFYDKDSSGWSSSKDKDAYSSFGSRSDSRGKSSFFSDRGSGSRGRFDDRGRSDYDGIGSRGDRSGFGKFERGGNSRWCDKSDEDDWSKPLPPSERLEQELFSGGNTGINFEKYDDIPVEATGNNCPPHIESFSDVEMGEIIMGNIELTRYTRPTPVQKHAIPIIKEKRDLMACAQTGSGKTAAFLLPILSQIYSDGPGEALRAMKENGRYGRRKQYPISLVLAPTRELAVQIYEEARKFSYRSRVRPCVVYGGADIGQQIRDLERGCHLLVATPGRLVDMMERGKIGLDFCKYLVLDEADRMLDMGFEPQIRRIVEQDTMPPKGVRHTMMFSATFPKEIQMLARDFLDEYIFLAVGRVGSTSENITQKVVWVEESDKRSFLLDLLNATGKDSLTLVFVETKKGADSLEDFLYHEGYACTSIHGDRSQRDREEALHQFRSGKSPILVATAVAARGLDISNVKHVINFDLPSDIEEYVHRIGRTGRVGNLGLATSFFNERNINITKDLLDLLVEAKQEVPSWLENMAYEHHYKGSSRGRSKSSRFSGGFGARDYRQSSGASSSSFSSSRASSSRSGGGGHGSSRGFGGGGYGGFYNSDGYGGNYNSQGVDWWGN

[3] = target: T2, Delta(24)-sterol reductase (Homo sapiens, UniProt Q15392)
T2 sequence (Q15392 whole entry): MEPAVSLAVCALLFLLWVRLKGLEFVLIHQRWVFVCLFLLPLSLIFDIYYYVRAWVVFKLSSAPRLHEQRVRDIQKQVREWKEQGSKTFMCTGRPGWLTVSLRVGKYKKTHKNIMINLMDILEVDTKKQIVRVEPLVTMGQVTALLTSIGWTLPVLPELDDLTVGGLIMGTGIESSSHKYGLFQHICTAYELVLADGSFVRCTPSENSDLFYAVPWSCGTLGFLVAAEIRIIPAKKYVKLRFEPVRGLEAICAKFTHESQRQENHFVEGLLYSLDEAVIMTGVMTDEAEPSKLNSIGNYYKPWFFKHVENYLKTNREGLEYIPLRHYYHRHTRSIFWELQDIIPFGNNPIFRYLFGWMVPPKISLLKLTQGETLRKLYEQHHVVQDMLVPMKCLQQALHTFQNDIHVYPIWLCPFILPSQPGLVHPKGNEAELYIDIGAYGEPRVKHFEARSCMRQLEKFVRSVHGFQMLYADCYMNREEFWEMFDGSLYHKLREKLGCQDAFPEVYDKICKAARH

[4] = target: T3, Serine/threonine-protein kinase Nek1 (Homo sapiens, UniProt Q96PY6)
T3 sequence (Q96PY6 whole entry): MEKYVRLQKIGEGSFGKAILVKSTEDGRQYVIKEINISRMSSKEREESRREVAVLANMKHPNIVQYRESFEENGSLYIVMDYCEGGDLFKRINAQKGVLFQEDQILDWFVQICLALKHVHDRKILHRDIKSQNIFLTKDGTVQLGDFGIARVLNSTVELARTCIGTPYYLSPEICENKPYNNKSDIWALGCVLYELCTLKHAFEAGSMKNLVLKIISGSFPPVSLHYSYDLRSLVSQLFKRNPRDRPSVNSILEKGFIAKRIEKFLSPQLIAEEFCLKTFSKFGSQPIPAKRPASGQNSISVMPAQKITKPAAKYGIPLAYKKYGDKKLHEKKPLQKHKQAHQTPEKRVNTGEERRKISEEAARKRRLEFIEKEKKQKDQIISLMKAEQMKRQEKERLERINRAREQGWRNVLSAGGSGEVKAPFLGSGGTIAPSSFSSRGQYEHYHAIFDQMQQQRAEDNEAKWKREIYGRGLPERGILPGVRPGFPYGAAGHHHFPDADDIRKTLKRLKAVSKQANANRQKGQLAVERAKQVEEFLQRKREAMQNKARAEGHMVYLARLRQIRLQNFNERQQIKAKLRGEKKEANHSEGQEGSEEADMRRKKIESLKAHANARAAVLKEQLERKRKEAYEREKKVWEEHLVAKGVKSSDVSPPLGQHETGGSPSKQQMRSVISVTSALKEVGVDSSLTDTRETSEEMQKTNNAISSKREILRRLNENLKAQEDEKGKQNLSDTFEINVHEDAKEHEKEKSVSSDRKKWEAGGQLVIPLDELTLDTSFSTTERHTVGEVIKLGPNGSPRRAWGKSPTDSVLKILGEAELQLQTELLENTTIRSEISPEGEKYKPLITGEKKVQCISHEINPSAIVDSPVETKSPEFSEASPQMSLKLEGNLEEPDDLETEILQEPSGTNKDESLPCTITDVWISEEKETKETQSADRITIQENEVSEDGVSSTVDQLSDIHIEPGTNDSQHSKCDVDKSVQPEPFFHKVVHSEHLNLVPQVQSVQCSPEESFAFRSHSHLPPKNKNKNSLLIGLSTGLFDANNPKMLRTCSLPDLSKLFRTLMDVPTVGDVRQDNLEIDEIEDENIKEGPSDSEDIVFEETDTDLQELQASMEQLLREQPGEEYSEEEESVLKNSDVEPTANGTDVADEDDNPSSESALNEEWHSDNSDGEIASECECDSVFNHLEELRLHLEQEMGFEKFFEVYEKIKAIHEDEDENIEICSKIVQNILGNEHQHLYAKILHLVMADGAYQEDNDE

SMILES	Kd [1]	Kd [2]	Kd [3]	Kd [4]
CNC(=O)c1ccc(Nc2ncc(C(F)(F)F)c(NCc3nccnc3N(C)S(C)(=O)=O)n2)cc1 [DEFACTINIB]	> 30 µM (inactive)	> 30 µM (inactive)	> 30 µM (inactive)	> 30 µM (inactive)
Cc1ccc(C(=O)Nc2ccc(Oc3cc4cnn(C)c4cc3-c3cn[nH]c3)c(F)c2)c(=O)n1-c1ccc(F)cc1 [MERESTINIB]	> 30 µM (inactive)	> 30 µM (inactive)	> 30 µM (inactive)	> 30 µM (inactive)
CC(C)(O)CC(=O)NCCn1ccc2ncnc(Nc3ccc(Oc4cccc(C(F)(F)F)c4)c(Cl)c3)c21 [TAK-285]	> 30 µM (inactive)	> 30 µM (inactive)	> 30 µM (inactive)	> 30 µM (inactive)
CNC(=O)c1cccc(-c2ccc3c(N4CCOC[C@@H]4C)nc(N4CCOC[C@@H]4C)nc3n2)c1 [VISTUSERTIB]	> 30 µM (inactive)	> 30 µM (inactive)	> 30 µM (inactive)	> 30 µM (inactive)
c1cc(OCCN2CCCCC2)cc(-c2n[nH]c3ccc(-c4nc[nH]n4)cc23)c1 [CC-401]	> 30 µM (inactive)	> 30 µM (inactive)	> 30 µM (inactive)	> 30 µM (inactive)
C=CC(=O)Nc1cc(Nc2nccc(-c3cn(C)c4ccccc34)n2)c(OC)cc1N(C)CCN(C)C [OSIMERTINIB]	> 30 µM (inactive)	> 30 µM (inactive)	> 30 µM (inactive)	> 30 µM (inactive)
COc1cc(Nc2ncc(F)c(Nc3ccc4c(n3)N(COP(=O)(O)O)C(=O)C(C)(C)O4)n2)cc(OC)c1OC [FOSTAMATINIB]	> 30 µM (inactive)	> 30 µM (inactive)	> 30 µM (inactive)	> 30 µM (inactive)
COc1ccc2c(OCc3nnc4ccc(-c5ccccc5)nn34)ccnc2c1 [AMG-208]	> 30 µM (inactive)	> 30 µM (inactive)	> 30 µM (inactive)	> 30 µM (inactive)
CC(C)CC(=O)Nc1[nH]nc2c1CN(C(=O)C1CCN(C)CC1)C2(C)C [PHA-793887]	> 30 µM (inactive)	> 30 µM (inactive)	> 30 µM (inactive)	> 30 µM (inactive)
CC[C@@](C)(Nc1ccnc(-c2c[nH]c3ncccc23)n1)C(=O)NCC(F)(F)F [DECERNOTINIB]	> 30 µM (inactive)	> 30 µM (inactive)	> 30 µM (inactive)	> 30 µM (inactive)
C=CCn1c(=O)c2cnc(Nc3ccc(N4CCN(C)CC4)cc3)nc2n1-c1cccc(C(C)(C)O)n1 [ADAVOSERTIB]	> 30 µM (inactive)	> 30 µM (inactive)	> 30 µM (inactive)	> 30 µM (inactive)
O=c1[nH]c([C@@H]2CCCN2)nc2c1oc1ccc(Cl)cc12	> 30 µM (inactive)	> 30 µM (inactive)	> 30 µM (inactive)	> 30 µM (inactive)
Cc1c(Cn2c(C)nc3c(C(=O)O)cc(N4CCOCC4)cc32)cccc1C(F)(F)F [GSK-2636771]	> 30 µM (inactive)	> 30 µM (inactive)	> 30 µM (inactive)	> 30 µM (inactive)
Cn1cc(-c2[nH]c3cc(NC(=O)[C@H](N)C4CCCCC4)cc4c3c2C=NNC4=O)cn1	> 30 µM (inactive)	> 30 µM (inactive)	> 30 µM (inactive)	> 30 µM (inactive)
NC(=O)c1ccc(N(C(N)=O)c2c(F)cccc2F)nc1-c1ccc(F)cc1F [VX-702]	> 30 µM (inactive)	> 30 µM (inactive)	> 30 µM (inactive)	> 30 µM (inactive)
COCCN1CCN(Cc2ccc(-c3n[nH]c4c3C(=O)c3c(NC(=O)NN5CCOCC5)cccc3-4)cc2)CC1 [RGB-286638]	> 30 µM (inactive)	> 30 µM (inactive)	> 30 µM (inactive)	> 30 µM (inactive)
CCc1nc(C(N)=O)c(Nc2ccc(N3CCC(N4CCN(C)CC4)CC3)c(OC)c2)nc1NC1CCOCC1 [GILTERITINIB]	> 30 µM (inactive)	> 30 µM (inactive)	0.432 µM (active)	> 30 µM (inactive)
CCN1CCN(Cc2ccc(Nc3ncc(F)c(-c4cc(F)c5nc(C)n(C(C)C)c5c4)n3)nc2)CC1 [ABEMACICLIB]	> 30 µM (inactive)	> 30 µM (inactive)	> 30 µM (inactive)	> 30 µM (inactive)
COc1cccc(Nc2ncnn3ccc(CN4CC[C@@H](N)[C@H](O)C4)c23)c1 [BMS-690514]	> 30 µM (inactive)	> 30 µM (inactive)	> 30 µM (inactive)	> 30 µM (inactive)
C=CC(=O)Nc1cccc(Nc2nc(Nc3ccc(N4CCN(C(C)=O)CC4)cc3OC)ncc2C(F)(F)F)c1 [ROCILETINIB]	> 30 µM (inactive)	> 30 µM (inactive)	> 30 µM (inactive)	> 30 µM (inactive)
O=C(NOC[C@H](O)CO)c1ccc(F)c(F)c1Nc1ccc(I)cc1F [MIRDAMETINIB]	> 30 µM (inactive)	> 30 µM (inactive)	> 30 µM (inactive)	> 30 µM (inactive)
O=C(NC[C@H](O)CO)c1ccncc1Nc1ccc(I)cc1F [PIMASERTIB]	> 30 µM (inactive)	> 30 µM (inactive)	> 30 µM (inactive)	> 30 µM (inactive)
Cc1cc(-c2cc(OC(=O)c3ccccc3)ccc2Cl)cc2nnc(Nc3ccc(OCCN4CCCC4)cc3)nc12 [TG100-801]	> 30 µM (inactive)	> 30 µM (inactive)	> 30 µM (inactive)	> 30 µM (inactive)
O=C(Nc1ccc(OC(F)(F)F)cc1)c1sccc1NCc1ccnc2ccccc12 [OSI-930]	> 30 µM (inactive)	> 30 µM (inactive)	> 30 µM (inactive)	> 30 µM (inactive)
